Key:
Details in all cases: incubation time: 72 h
MDA-MB-468 [1] = assay: drug sensitivity score (DSS), CellTiter-Blue viability (DSS (AUC-based score)); higher = stronger viability inhibition; extreme values may be limits of the assay
Protocol: (§1)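 DSRT with the CellTiter-Blue (resazurin reduction) viability readout, fluorescence 560/590 nm, 72 h incubation. Plates were normalised to DMSO and benzethonium chloride controls. DSS is computed from the area under the fitted dose-response curve (5 or 9 concentrations).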

CAL-120 = assay: as above
Protocol: as §1

HCC1937 = assay: as above
Protocol: as §1

CAL-85-1 [2] = assay: as above
Protocol: as §1

SK-BR-3 = assay: as above
Protocol: as §1

CAL-148 = assay: as above
Protocol: as §1

HCC1599 = assay: as above
Protocol: as §1

MDA-MB-436 = assay: as above
Protocol: as §1

HCC1143 [3] = assay: as above
Protocol: as §1

BT-549 = assay: as above
Protocol: as §1

CAL-51 = assay: as above
Protocol: as §1

DU-4475 = assay: as above
Protocol: as §1

BT-474 = assay: as above
Protocol: as §1

MDA-MB-453 [4] = assay: as above
Protocol: as §1

Hs578T = assay: as above
Protocol: as §1

MDA-MB-231 [5] = assay: as above
Protocol: as §1

HDQ-P1 = assay: as above
Protocol: as §1

MFM-223 = assay: as above
Protocol: as §1

MDA-MB-468 [6] = assay: normalised viability (% of control), CellTiter-Blue; higher = more viable cells (about 100 = DMSO control)
Procedure, shortened: (§2)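 384-well plates were pre-loaded with compound in 5 µl medium before 20 µl of breast cancer cell suspension was seeded. Following 72 h incubation, 2.5 µl CellTiter-Blue reagent was added for 2 h at 37 °C. Fluorescence was read at 560/590 nm and plates were normalised to vehicle (100) and a positive kill control (0), checked by Z'-factor. Normalised viability is reported at a single listed concentration of the series.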

CAL-85-1 [7] = assay: as above
Procedure, shortened: as §2

HCC1143 [8] = assay: as above
Procedure, shortened: as §2

MDA-MB-453 [9] = assay: as above
Procedure, shortened: as §2

MDA-MB-231 [10] = assay: as above
Procedure, shortened: as §2

CC[C@@H]1C(=O)N(C)c2cnc(Nc3ccc(C(=O)NC4CCN(C)CC4)cc3OC)nc2N1C1CCCC1 [BI 2536]
Details	drug sensitivity score
BT-474	0
BT-549	21.3
CAL-51	20.7
CAL-85-1 [2]	14.7
CAL-120	21.6
CAL-148	19.7
DU-4475	19.3
HCC1143 [3]	13.2
HCC1599	0
HCC1937	22.8
HDQ-P1	5.37
Hs578T	8.18
MDA-MB-231 [5]	16.4
MDA-MB-436	7.37
MDA-MB-453 [4]	23
MDA-MB-468 [1]	15
MFM-223	19
SK-BR-3	25.6

normalised viability [%]
Details	0.3 nM	1 nM	3 nM	10 nM	100 nM	1000 nM
CAL-85-1 [7]	101	–	79.7	40.5	–	–
HCC1143 [8]	–	109	–	–	51.3	52.4
MDA-MB-231 [10]	–	103	–	–	41.8	41
MDA-MB-453 [9]	97.8	–	56.6	32.6	–	–
MDA-MB-468 [6]	–	107	–	–	52.2	55.1

CC[C@H](Nc1ncnc2[nH]cnc12)c1nc2cccc(F)c2c(=O)n1-c1ccccc1 [CAL-101]
Details	drug sensitivity score
BT-474	0
BT-549	1.74
CAL-51	0
CAL-85-1 [2]	0
CAL-120	1.02
CAL-148	0
DU-4475	2.91
HCC1143 [3]	1.48
HCC1599	3.9
HCC1937	0
HDQ-P1	2.23
Hs578T	0
MDA-MB-231 [5]	0
MDA-MB-436	0
MDA-MB-453 [4]	2.74
MDA-MB-468 [1]	2.46
MFM-223	0
SK-BR-3	2.96

normalised viability [%]
Details	3 nM	10 nM	30 nM	100 nM	1000 nM	10000 nM
CAL-85-1 [7]	88.6	–	75.9	78	–	–
HCC1143 [8]	–	99.4	–	–	96.1	76.2
MDA-MB-231 [10]	–	89.9	–	–	92.1	80.5
MDA-MB-453 [9]	97.5	–	91.7	89.8	–	–
MDA-MB-468 [6]	–	110	–	–	96	62.6

C=CC(=O)Nc1cc2c(Nc3ccc(F)c(Cl)c3)ncnc2cc1OCCCN1CCOCC1 [Canertinib]
Details	drug sensitivity score
BT-474	18.5
BT-549	6.86
CAL-51	3.66
CAL-85-1 [2]	11.9
CAL-120	6.69
CAL-148	7.47
DU-4475	2.6
HCC1143 [3]	3.63
HCC1599	1.14
HCC1937	7.24
HDQ-P1	14
Hs578T	4.83
MDA-MB-231 [5]	8.24
MDA-MB-436	11.6
MDA-MB-453 [4]	15.9
MDA-MB-468 [1]	13.9
MFM-223	5.96
SK-BR-3	27.4

normalised viability [%]
Details	3 nM	10 nM	30 nM	100 nM	1000 nM	10000 nM
CAL-85-1 [7]	82.5	–	67	64.2	–	–
HCC1143 [8]	–	74.9	–	–	89	22.6
MDA-MB-231 [10]	–	91.4	–	–	70.6	6.79
MDA-MB-453 [9]	105	–	86.9	72.6	–	–
MDA-MB-468 [6]	–	89.2	–	–	52.9	1.77

O=C(O)C1(C(=O)O)CCC1.[NH2-].[NH2-].[Pt+2] [Carboplatin]
Details	drug sensitivity score
BT-474	0
BT-549	0
CAL-51	1.03
CAL-85-1 [2]	0
CAL-120	0
CAL-148	2.02
DU-4475	0
HCC1143 [3]	0
HCC1599	0
HCC1937	0
HDQ-P1	0
Hs578T	0
MDA-MB-231 [5]	0
MDA-MB-436	0
MDA-MB-453 [4]	1.79
MDA-MB-468 [1]	0
MFM-223	1.39
SK-BR-3	0

normalised viability [%]
Details	3 nM	10 nM	30 nM	100 nM	1000 nM	10000 nM
CAL-85-1 [7]	98	–	82.2	99.6	–	–
HCC1143 [8]	–	79.8	–	–	87.1	87.7
MDA-MB-231 [10]	–	85.8	–	–	113	93.7
MDA-MB-453 [9]	113	–	93.3	102	–	–
MDA-MB-468 [6]	–	100	–	–	98.9	83.3

COc1cc2c(Oc3ccc4[nH]c(C)cc4c3F)ncnc2cc1OCCCN1CCCC1 [Cediranib]
Details	drug sensitivity score
BT-474	0
BT-549	0
CAL-51	0
CAL-85-1 [2]	0
CAL-120	0
CAL-148	0
DU-4475	0
HCC1143 [3]	0
HCC1599	0
HCC1937	0
HDQ-P1	0
Hs578T	0
MDA-MB-231 [5]	0
MDA-MB-436	0
MDA-MB-453 [4]	0
MDA-MB-468 [1]	0
MFM-223	0
SK-BR-3	0

normalised viability [%]
Details	0.3 nM	1 nM	3 nM	10 nM	100 nM	1000 nM
CAL-85-1 [7]	104	–	96.5	99.8	–	–
HCC1143 [8]	–	128	–	–	120	112
MDA-MB-231 [10]	–	84.7	–	–	83.7	92
MDA-MB-453 [9]	85.7	–	97	84.7	–	–
MDA-MB-468 [6]	–	92.5	–	–	89.7	95.2

Cc1ccc(-c2cc(C(F)(F)F)nn2-c2ccc(S(N)(=O)=O)cc2)cc1 [Celecoxib]
Details	drug sensitivity score
BT-474	0
BT-549	0
CAL-51	0
CAL-85-1 [2]	0
CAL-120	0
CAL-148	0
DU-4475	0
HCC1143 [3]	0
HCC1599	0
HCC1937	2.89
HDQ-P1	4.34
Hs578T	0
MDA-MB-231 [5]	0
MDA-MB-436	3.91
MDA-MB-453 [4]	1.65
MDA-MB-468 [1]	0
MFM-223	0
SK-BR-3	0

normalised viability [%]
Details	3 nM	10 nM	30 nM	100 nM	1000 nM	10000 nM
CAL-85-1 [7]	91.6	–	75	76.7	–	–
HCC1143 [8]	–	90.3	–	–	95.5	86
MDA-MB-231 [10]	–	96.2	–	–	86.7	99.6
MDA-MB-453 [9]	111	–	97.5	103	–	–
MDA-MB-468 [6]	–	96.6	–	–	107	95

Source: the supplement of paper PMC4862054
